# Patent publication US5141627A, “Chelators whose affinity for calcium ion is increased by illumination” (The Regents of the University of California, priority 1989, dated 1992)
# Like-named read-outs stand apart in the source and are kept apart here.
# Columns and labels:
# [1] = Quantum efficiency and completion of photolysis; type: physicochemical; conditions: for Φ quantum efficiency of photolysis, free: zero [Ca2+]
# Method: Spectra were obtained after 0, 2, 5, 9, 16, 28, 46, 80, 150, 285, 505 and 903 sec of 365-nm illumination at 7.82×10^- 9 einsteins cm^-2 s^-1 from Spectroline lamp. For clarity only the 0-, 9-, 28-, 46-, 80-, 150-, and 505-s spectra are reproduced herein. The 505- and 903-s spectra were identical, confirming completion of photolysis after those times. Solutions were at 22±2° C.
# The method was as described in FIG. 1B except that the EGTA was replaced by 2 mM CaCl2, and spectra were measured after 0-, 50-, 100-, 203-, 412-, 840-, 1730-, 4080-, and 8000-s illumination. The last two spectra were identical, confirming completion. For clarity the 50- and 8000-s spectra are omitted.
# The photolysis quantum efficiencies of diazo chelators were determined by alternately irradiating a buffered solution of the substrate with a known intensity of longwave UV light, and measuring the absorbance spectrum, in apparatus described by S. R. Adams, et al. (1988), supra.
# [2] = Ca2+ affinity by UV spectra during titration of EGTA or HEEDTA buffers; type: binding
# Method: (§1) The titration was done at 22° C. with 10 mL of 100 mM KCl, 10 mM K-MOPS, 10 mM K2 H.HEEDTA, and 14 […] diazo-2 as starting materials, adjusting the pH to 7.24, recording the spectrum, and then discarding 1.0 mL of this solution and replacing with 1.0 mL of 100 mM KCl, 10 mM K.MOPS, 10 mM KCa.HEEDTA, 14 μM diazo-2, readjusting the pH to 7.24, and recording the spectra, which was then in 9 mM K2H.HEEDTA. Subsequent iterations to reach n mM KCa.HEEDTA, (10-n) mM HEEDTA, n=2-10, were done by discarding 10.0/(11-n) mL and replacing with equal volumes of the 10mM KCa.HEEDTA, 14 μM diazo-2 stock. After n=10 had been reached to give free Ca^2+ between 10^-5 and 10^-4 M, addition of 1 mM CaCl2 had no further effect on the spectrum. For clarity only six spectra are including in the figure, n=0, 2, 4, 6, 8, and 10. Each spectrum is labeled with the calculated free [Ca^2+ ] imposed by the HEEDTA buffer, assuming a log effective stability constant of 5.55 at pH 7.24.
# (§2) The phenylacetate was produced by irradiating a 30 μM solution of diazo-2 in 100 mM KCl, 10 mM Tris.HCl, 10 mM K2 H.HEEDTA, pH 8.40, with Spectroline lamp at 365 nm to completion. The titration was then performed as in A but the pH was maintained at 8.40, at which the calculated log effective stability is constant for HEEDTA was 6.60.
# Ca^2+ -binding constants for chelators before and after photolysis were determined by monitoring UV spectra during titration of EGTA or HEEDTA buffers to varying free Ca^2+ levels.
# Either the ratio of, for example, [Ca.EGTA] to free [EGTA] was adjusted at a constant pH, or the pH was varied while [Ca.EGTA]=[EGTA]. These two approaches gave equivalent answers for pH>7 whenever directly tested, because of the pH insensitivity of BAPTA-like ligands (see FIG. 1 legend for more details). The apparent dissociation constants of Ca.EGTA and Ca.HEEDTA were calculated as described by R. Y. Tsien (1980); see also R. Y. Tsien, et al. (1986), S. R. Adams, et al. (1980), Grynkiewicz, et al., (1985), and Jackson, et al. (1987).
# [3] = Absorbance spectra of free and Ca2+-bound chelators; type: physicochemical
# Method: as §1, §2
# Proton magnetic resonance spectra (^1 H NMR) were recorded on a Varian EM-390 90-MHz spectrometer in CDCl3 unless otherwise noted, and the chemical shifts are given in δ values relative to tetramethylsilane. Ultraviolet (UV) absorbance spectra were recorded on a Cary 210 or a Perkin-Elmer Lambda Array 3840 spectrophotometer at 20°±2° C. Melting points are in Centigrade and are uncorrected. Elemental analyses were performed by the Microanalytical Laboratory in the Department of Chemistry, University of California, Berkeley, Calif.
quantum yield of photolysis ([1]; 365 nm),"Φ quantum efficiency of photolysis, +Ca2+ ([1]; saturating [Ca2+])","Φ quantum efficiency of photolysis, free [1]","Kd ([2]; after photolysis, 0.1-0.15M ionic strength, 20-23° C., read-out: Kd (Ca2+), after photolysis) [µM]","Kd ([2]; before photolysis, 0.1-0.15M ionic strength, pH 7.0-7.4, 20-23° C., read-out: Kd (Ca2+), before photolysis) [µM]","εmax, +Ca2+ ([3]; +Ca2+, at λmax)","λmax, +Ca2+ ([3]; +Ca2+, dominant peak at longest wavelength) [nm]","εmax, free ([3]; free (zero Ca2+), at λmax)",shift of absorbance to shorter wavelengths on binding Ca2+ ([3]; on binding Ca2+) [nm],"Kd ([2]; negligible affinity, pre- and post-photolysis, read-out: Kd (Ca2+)) [µM]","λmax, free ([3]; free (zero Ca2+), dominant peak at longest wavelength) [nm]",Compound,"illumination time to completion of photolysis, free ([1]; 365 nm, 7.82×10^-9 einsteins cm^-2 s^-1, absence of Ca2+, 8 μM) [s]"
0.030,0.030,0.057,0.073,2.2,"20.2 10^-3, M^-1 cm^-1",320,"22.2 10^-3, M^-1 cm^-1",50,–,–,"Cc1ccc(N(CC(=O)O)CC(=O)O)c(OCCOc2cc(C(=O)C=[N+]=[N-])ccc2N(CC(=O)O)CC(=O)O)c1 [diazo-2, 1-(2-bis(carboxymethyl)amino-5-methyl) phenoxy-2-(2-bis(carboxymethyl)amino-5-(diazoacetyl)phenoxy) ethane]",≤ 505
–,–,0.048,–,–,–,–,"22.8 10^-3, M^-1 cm^-1",–,> 1000,374,"COc1cc(C(=O)C=[N+]=[N-])ccc1N(CC(=O)O)CC(=O)O [diazo-3, 2-methoxy-4-(diazoacetyl)aniline-N, N-diacetic acid]",–
